Laboratory results as given in patent US20260374818A1, “CATIONIC PEPTIDES WITH BROAD SPECTRUM ACTIVITY” (priority 2023, published 2026).
Where a SMILES comes first, the peptide text is derived from it. [ ]: non-standard residue; d: D form.

Columns and labels:
[1] = Peptide aggregation in RPMI + 10% FBS with PBMCs (microscopy); format: physicochemical; conditions: 50 μg/ml, overnight
Experimental: Peptide Aggregation: Peptide aggregation was assessed qualitatively by examining samples of peptides mixed with PBMCs following overnight incubation at 37 °C and 5% CO2. All samples were prepared in RPMI media containing 10% FBS the same manner as the cytotoxicity assays described above. Visualization of aggregates was done using a Nikon Eclipse TS100 Inverted Microscope at 10× magnification.
In aggregation studies, peptides were added to PBMCs in RPMI media containing 10% FBS and incubated overnight at 37 °C in 5% CO2.
The peptides were also evaluated for their tendency to aggregate when added to RPMI tissue culture media containing 10% fetal bovine serum in the presence of PBMCs. Peptides were added to PBMCs in RPMI media containing 10% FBS and incubated overnight at 37 °C in 5% CO2. […] Compared to a highly aggregation prone peptide, 1018 [Haney, E. F., et al. (2017). Aggregation and its influence on the immunomodulatory activity of synthetic innate defense regulator peptides.
As with the DJK-5 derivatives above, the AB103-D derivatives were evaluated for their tendency to aggregate when added to RPMI tissue culture media containing 10% fetal bovine serum in the presence of PBMCs. Peptides were added to PBMCs in RPMI media containing 10% FBS and incubated overnight at 37 °C in 5% CO2.

PAO1 preformed biofilms = conditions: for IC50: read-out: Biofilm Eradication IC50, PAO1, 24-hr preformed biofilms treated overnight, TTC
MRSA USA300 biofilms = experiment: Biofilm inhibition by >95% pure peptides (crystal violet), MRSA; format: cell-based, methicillin resistant Staphylococcus aureus; conditions: for IC50: MRSA, 24 hours
[2] = tested on: 3-day-old oral plaque (multispecies) biofilms; experiment: Oral plaque biofilm model, long-term (1-3 days) exposure, dead cell volume; format: cell-based; conditions: daily for 3 days, compared to DJK5 (FIG. 16A)
[3] = tested on: peripheral blood mononuclear cells (PBMCs); experiment: Cytotoxicity (LDH release), PBMCs
[4] = tested on: P. aeruginosa biofilms on N/TERT epithelial skin; experiment: Skin organoid biofilm model, peptide-loaded collagen dressings, P. aeruginosa; format: cell-based, Pseudomonas aeruginosa; conditions: compared to DJK-5 and ciprofloxacin
[5] = tested on: P. aeruginosa PAO1 biofilms; conditions: for IC50: read-out: Biofilm Inhibition IC50, PAO1, 24 hours
[6] = tested on: MRSA biofilms on N/TERT epithelial skin; experiment: Skin organoid biofilm model, peptide-loaded collagen dressings, MRSA; format: cell-based, methicillin resistant Staphylococcus aureus; conditions: compared to DJK-5 and ciprofloxacin
N/TERT keratinocytes = experiment: Cytotoxicity (LDH release), N/TERT keratinocytes
[7] = tested on: PAO1 biofilms on human skin organoid; experiment: Skin organoid biofilm infection model, peptide solution, PAO1; format: cell-based, Pseudomonas aeruginosa; conditions: peptide solution 4 hrs (FIG. 3B)
[8] = tested on: human bronchiolar epithelial cells (HBEs); experiment: Cytotoxicity (LDH release), human bronchiolar epithelial cells
P. aeruginosa LESB58 [9] = experiment: Murine model of abscess infections; format: in vivo, murine; Pseudomonas aeruginosa
MRSA preformed biofilms = experiment: Biofilm eradication of 24-hr preformed biofilms (TTC metabolic dye), MRSA; format: cell-based, methicillin resistant Staphylococcus aureus; conditions: 24-hr preformed biofilms treated overnight
[10] = tested on: MRSA biofilms on human skin organoid; experiment: Skin organoid biofilm infection model, peptide solution, MRSA; format: cell-based, methicillin resistant Staphylococcus aureus; conditions: peptide solution 4 hrs (FIG. 3A)
[11] = tested on: MRSA USA300 planktonic cells; experiment: Planktonic growth inhibition by pure AB103-D derivatives, MRSA; format: cell-based, methicillin resistant Staphylococcus aureus
Experimental: (§1) The effect of peptide on bacterial and biofilm growth was assessed using the biofilm inhibition assay [Haney, E. F., Trimble, M. J., & Hancock, R. E. W. (2021) FIGS. 20A-20D. Microtiter plate assays to assess antibiofilm activity against bacteria. Nature Protocols, 16(5), 2615-2632]. The effect of peptide on planktonic growth and biofilm growth of MRSA USA300 (FIG. 20A, FIG. 20C) and P. aeruginosa PAO1 (FIGS. 20B, 20D) was assessed and compared to the activity seen for AB103-D (gray stars) and DJK5 (gray open circles). Data shown are the average of three biological replicates. Error bars have been omitted for clarity. […]. The results indicated enhanced antibiofilm and antibacterial activity of AB103-D derivatives compared to DJK5.

[12] = tested on: P. aeruginosa PAO1 biofilms; experiment: Biofilm inhibition by SPOT-synthesized AB103-D variants (crystal violet), P. aeruginosa; format: cell-based, Pseudomonas aeruginosa; conditions: P. aeruginosa PAO1, SPOT peptides
[13] = tested on: P. aeruginosa PAO1 planktonic cells; experiment: Planktonic growth inhibition by pure AB103-D derivatives, P. aeruginosa; format: cell-based, Pseudomonas aeruginosa
Experimental: as §1

MRSA USA300 = experiment: Murine sinusitis model, MRSA; format: in vivo, mouse; methicillin resistant Staphylococcus aureus; conditions: MRSA USA300, 0.1 mg dose, compared to DJK5
Description: (§2) FIGS. 15A-15I show peptides AB101-D, AB102-D and AB103-D compared to DJK5 in a murine sinusitis model of bacterial infections. MRSA USA300, nasal cavity (FIG. 15A) P. aeruginosa LESB58 (FIG. 15B and FIG. 15C, nasal cavity); MRSA USA300, lung tissue (FIG. 15D) P. aeruginosa LESB58 (FIG. 15E and FIG. 15F, lung tissue); and MRSA USA300, weight change (FIG. 15G) P. aeruginosa LESB58 (FIG. 15H and FIG. 15I, weight change).
(§3) A murine sinusitis model of bacterial infections in the nasal cavity of mice [Alford et al. (2021). Murine model of sinusitis infection for screening antimicrobial and immunomodulatory therapies. Frontiers in Cellular and Infection Microbiology., 11, 621081] was used to determine the efficacy of D-amino acid peptides AB101-D, AB102-D and AB103-D compared to DJK5. […]. Treatment was applied either as dropwise administration of a peptide solution (20 μl) to the infected naris of a mouse (FIGS. 15A, 15B, 15D, 15E, 15G, 15H) or peptide was delivered using a Respimat® inhaler device (FIGS. 15C, 15F, 15I). Mice were monitored and weighed once daily for up to three days then euthanized prior to collection of nasal lavage fluid and lung tissue for bacterial enumeration. The limit of detection is shown by the dotted line at log CFU=2. […] Accordingly, the results indicated enhanced efficacy of D-amino acid peptides AB101-D, AB102-D and AB103-D compared to DJK5 in this murine model.

P. aeruginosa LESB58 [14] = experiment: Murine sinusitis model, P. aeruginosa; format: in vivo, mouse; Pseudomonas aeruginosa; conditions: P. aeruginosa LESB58, 0.1 mg dose, compared to DJK5
Description: as §2, §3

CC[C@@H](C)[C@@H](NC(=O)[C@@H](CCCNC(=N)N)NC(=O)[C@H](N)CCCCN)C(=O)N[C@H](CCCNC(=N)N)C(=O)N[C@H](Cc1c[nH]c2ccccc12)C(=O)N[C@@H](C(=O)N[C@@H](C(=O)N[C@H](CC(C)C)C(=O)N[C@H](CCCNC(=N)N)C(=O)N[C@@H](C(=O)N[C@@H](C(=O)N[C@H](CCCNC(=N)N)C(N)=O)[C@H](C)CC)C(C)C)[C@H](C)CC)C(C)C [AB101-D, krirwvilrvir-NH2] (H-[dK][dR][dI][dR][dW][dV][dI][dL][dR][dV][dI][dR]-NH2)
Peptide aggregation [1]: some small aggregates | Enhanced antibiofilm eradication activity (PAO1 preformed biofilms; P. aeruginosa, compared with DJK5): > 2 fold | IC50 (PAO1 preformed biofilms): 1.9 µM | IC50 (MRSA USA300 biofilms): 0.27 µM | Proportion of dead biofilm cells ([2]; 10 μg/ml): superior to DJK5 at killing bacteria cells | Proportion of dead biofilm cells ([2]; 1 or 5 μg/ml): killed more of the biofilm cells | Cytotoxicity (LDH) [3]: low toxicity | Antibiofilm activity from collagen dressing [4]: clearly superior activity to both DJK-5 and ciprofloxacin | Biofilm inhibition activity compared to DJK5 ([5]; P. aeruginosa): ≥ 4 fold | IC50 ([5]; crystal violet): 1.1 µM | Antibiofilm activity from collagen dressing [6]: clearly superior activity to both DJK-5 and ciprofloxacin | Cytotoxicity (LDH) (N/TERT keratinocytes): low toxicity | Antibiofilm activity on skin organoid [7]: excellent antibiofilm activity | Cytotoxicity (LDH) [8]: low toxicity | Abscess size (P. aeruginosa LESB58 [9]): reduced abscess size | IC50 (MRSA preformed biofilms): 1.4 µM | Antibiofilm activity on skin organoid [10]: excellent antibiofilm activity

CC[C@@H](C)[C@@H](NC(=O)[C@@H](CCCNC(=N)N)NC(=O)[C@@H](CCCNC(=N)N)NC(=O)[C@@H](Cc1c[nH]c2ccccc12)NC(=O)[C@@H](CCC(N)=O)NC(=O)[C@H](NC(=O)[C@@H](CCCNC(=N)N)NC(=O)[C@H](NC(=O)[C@H](NC(=O)[C@@H](CCCNC(=N)N)NC(=O)[C@H](NC(=O)[C@H](N)CCCNC(=N)N)C(C)C)C(C)C)[C@H](C)CC)C(C)C)C(N)=O [AB113-D, rvrvirvqwrri] (H-[dR][dV][dR][dV][dI][dR][dV][dQ][dW][dR][dR][dI]-NH2)
minimum inhibitory concentration of peptide that inhibited at least 90% of biofilm growth (MBIC90) (MRSA USA300 biofilms; MRSA USA300 biofilms, >95% pure peptides, 10% TSB + 0.1% glucose): 0.5 µM | Planktonic growth inhibition [11]: among the most active against planktonic cells | Biofilm growth inhibition ([5]; P. aeruginosa PAO1 (FIG. 20D)): among the most active | minimum inhibitory concentration of peptide that inhibited at least 90% of biofilm growth (MBIC90) ([5]; P. aeruginosa PAO1 biofilms, >95% pure peptides, crystal violet, BM2 minimal media): 2 µM | More active than AB103-D against PAO1 biofilms ([5]; PAO1, >95% pure peptides): up to 4 fold | Activity against PAO1 biofilms compared to AB103-D [12]: activity superior to that of AB103-D | Planktonic growth inhibition [13]: among the most active

CC[C@@H](C)[C@@H](NC(=O)[C@@H](CCCNC(=N)N)NC(=O)[C@@H](CCCCN)NC(=O)[C@@H](CCCNC(=N)N)NC(=O)[C@H](NC(=O)[C@H](NC(=O)[C@@H](CCCNC(=N)N)NC(=O)[C@H](NC(=O)[C@H](N)CCCNC(=N)N)C(C)C)C(C)C)[C@H](C)CC)C(=O)N[C@H](CCCNC(=N)N)C(=O)N[C@H](Cc1c[nH]c2ccccc12)C(=O)N[C@@H](C(N)=O)C(C)C [AB102-D, rvrvirkrirwv-NH2] (H-[dR][dV][dR][dV][dI][dR][dK][dR][dI][dR][dW][dV]-NH2)
Peptide aggregation [1]: No appreciable aggregation | IC50 (PAO1 preformed biofilms): 23 µM | Bacteria in nasal cavity and lungs (MRSA USA300): reduced the amount of bacteria in the nasal cavity and lungs of mice much more than DJK5 treatment | IC50 (MRSA USA300 biofilms): 0.15 µM | Proportion of dead biofilm cells ([2]; 1 or 5 μg/ml): killed more of the biofilm cells | Bacteria in nasal cavity and lungs (P. aeruginosa LESB58 [14]): reduced the amount of bacteria in the nasal cavity and lungs of mice much more than DJK5 treatment | Cytotoxicity (LDH) [3]: low toxicity | IC50 ([5]; crystal violet): 16.5 µM | Cytotoxicity (LDH) (N/TERT keratinocytes): low toxicity | Antibiofilm activity on skin organoid [7]: excellent antibiofilm activity | Cytotoxicity (LDH) [8]: low toxicity | IC50 (MRSA preformed biofilms): 3.7 µM | Antibiofilm activity on skin organoid [10]: excellent antibiofilm activity
